{"source": "patent US20140121278A1", "about": "“ANTI-TUMOR AGENT OTX-008 TARGETS HUMAN GALECTIN-1” (REGENTS OF THE UNIVERSITY OF MINNESOTA, priority 2012, published 2014)", "key": {"Jurkat E6.1 cells": {"system": "Jurkat E6.1 cells", "assay": "Agglutination assay, gal-1 induced", "type": "cell-based", "conditions": "Homo sapiens, 20 μM OTX-008, 1 μM gal-1, 22° C., read-out: inhibition of cell agglutination", "experimental": "FIG. 7 depicts Jurkat E6.1 cells agglutination as induced by addition of 1 μM gal-1 and incubated at 22° C. on plastic, round bottom chamber slides (Nunc, Naperville, Ill., USA), in medium alone or in the presence of 20 μM OTX-008 (“0118”).\nAgglutination Assay. Jurkat E6.1 cells (2×10^6/200 μL RPMI 1640 medium) agglutination was induced by 1 μM gal-1 and were incubated on plastic round bottom chamber slides (Nunc, Naperville, Ill., USA) in medium alone or with 20 μM OTX-008 at 22° C. Subsequently the cells were analyzed for agglutination with an Axiovert 10 inverted phase microscope equipped with a digital camera system (Zeiss, Germany), and digitally analyzed and differentially quantified by morphometric analysis, as described earlier (Dings et al., 2008, Cancer Lett; 265(2):270-280; and Dings et al., 2010, Bioconjugate Chem; 21(1):20-27)."}, "human cancer cell lines": {"system": "human cancer cell lines", "assay": "Cell viability assay (MTT)", "type": "cell-based", "conditions": "72 h drug exposure, 48 h wash-out", "from_the_text": "FIGS. 8A-8C illustrate the concentration of OTX-008 (“0118”) required for inhibiting cell viability is proportional to Gal-1 expression. FIG. 8A illustrates the anti-viability effects (expressed as % change in cell numbers over time) of OTX-008 using the MTT assay in human cancer cell lines. FIG. 8B illustrates cancer cells that are sensitive to OTX-008 expressed […] galectin-1 protein expression as determined using Western Blot analysis. FIG. 8C illustrates that concentration of OTX-008, as established by plotting the IC50 in cancer cells, is proportional to their relative LGALS1 mRNA expression as assessed by qRT-PCR.\nCell lines. HEP2, SQ20B, HT29, DU145, and SKHEP1 cells were obtained from the ATCC (Rockville, Md., USA). COL0205-S cells were obtained from the National Cancer Institute collection. […]\nCell viability assay. Cell viability (i.e. cell proliferation and/or cytotoxicity) was determined using the MTT assay (3-[4,5-dimethylthiazol-2-yl]-2,5-diphenyltetrazolium bromide; Sigma, Saint-Quentin Fallavier, France). […] After incubation, the supernatant was discarded, insoluble formazan precipitates were dissolved in 0.1 mL of DMSO and the absorbance was measured at 560 nm by use of a microplate reader (Thermo, France). […] IC50 was determined as half the maximal inhibitory drug concentration for each cell line."}, "[1]": {"biological_target": "T1, gal-1 binding to cell surface glycans on splenocytes (CD4+ and CD8+ leukocytes, CD31+ endothelial cells) (Homo sapiens, UniProt P09382)", "T1 construct": "made in house; host or cells: E. coli BL21 (DE3) (the only gal-1 preparation described)", "T1 sequence (P09382 whole entry)": "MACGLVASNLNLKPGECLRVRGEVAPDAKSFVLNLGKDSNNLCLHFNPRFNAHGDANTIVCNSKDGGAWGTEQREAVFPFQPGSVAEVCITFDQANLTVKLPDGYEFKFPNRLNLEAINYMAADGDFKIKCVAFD", "assay": "Flow cytometry: FITC-gal-1 binding to cell surface glycans on splenocytes", "type": "cell-based, gal-1 null mice", "conditions": "for inhibition at 20 µM: 20 μM OTX-008, 0.1 μM gal-1; for inhibition at 100 µM: 100 μM OTX-008", "experimental": "FIGS. 6A and 6B depict the results of flow cytometry used to assess the effects of OTX-008 (“0118”) on FITC-gal-1 binding to splenocytes (CD4+ and CD8+ leukocytes and CD31+ endothelial cells). FIG. 6A illustrates the binding of FITC-gal-1 (0.1 μM or 0.2 μM) to these cells as a function of OTX-008 concentration. FIG. 6B illustrates the binding to CD4+ and CD8+ leukocytes and CD31+ endothelial cells derived from male or female gal-1−/− null mice. FITC-Galectin-1 preparation. Gal-1 was conjugated with fluorescein isothiocyanate (FITC) using a FITC:protein molar ratio of 10:1. Gal-1 (2 mg/ml) was dissolved in […] of 20 mM potassium phosphate buffer, pH 7.4, followed by addition of approximately 50 μL FITC (10 mg/ml) that had been dissolved in 0.1 mM sodium bicarbonate. The resulting lower pH (approximately pH 8) ensured selective labeling at the N-terminal amine group of the protein (Hungerford et al., 2007, Photochem Photobiol Sci; 6(2):152-158; and Hermanson, 2008, Bioconjugate Techniques, 2nd ed.; Academic Press: Burlington, Mass. Part 1, 1202 pp). This solution was then mixed thoroughly and incubated at room temperature (22° C.) for 18 hours in the dark. During the course of the reaction, the mixture was gently vortexed 3 or 4 times. The resulting FITC-labeled protein was separated from unbound dye by filtration using an Amicon Ultra cellulose filter (Millipore, 10 kDa cut-off). […] Flow Cytometry. Male and female gal-1 null mice (Jackson Laboratory) were provided water and standard chow ad libitum and were maintained on a 12-hour light/dark cycle prior to experiments that were approved by the University of Minnesota Research Animal Resources Ethical Committee. For FACS experiments, spleens from these mice (6-10 weeks old) were harvested and non-enzymatically disrupted by shear force to yield single-cell suspensions (Dings et al., 2011, Clin Cancer Res; 17(10):3134-3145). Cell suspensions were prepared in Hanks's balanced solution. Red blood cells were lysed in ACK (Lonza Walkersville) for 5 minutes on ice and suspensions were filtered through nylon mesh. Spleen cells were then washed and incubated with monoclonal antibodies as indicated for 40 minutes on ice. After an additional washing step, various concentrations of gal-1 (with or without OTX-008) were added and incubated for 30 minutes on ice. Prior to FACS analysis, cell suspensions were washed once more and analyzed by multi-parameter flow cytometry on a LSR II flow cytometer (BD Biosciences) using Flowjo software (Tree Star, Inc.) (Dings et al., 2011, Clin Cancer Res; 17(10):3134-3145)."}, "human galectin-1 (gal-1)": {"biological_target": "T2, human galectin-1 (gal-1) (Homo sapiens, UniProt P09382)", "T2 construct": "made in house; host or cells: E. coli BL21 (DE3)", "T2 sequence (P09382 whole entry)": "as above", "assay": "1H-15N HSQC NMR binding of OTX-008 to 15N-labeled gal-1", "conditions": "total gal-1 monomer 60 μM, pH 7.0, 30° C., HSQC intensity changes averaged over all resonances; read-out: Kd, estimate from mid-point of saturable binding curve (free OTX-008 at 50% intensity change)", "experimental": "Galectin-1 preparation. […] Typically, 44 milligrams of purified protein were obtained from 1 liter of cell culture. The purity of the final sample was quantified by using the Biorad protein assay and was checked for purity by using SDS PAGE. Functional activity of the purified protein was assessed by a T-cell death assay (Nesmelova et al., 2008, Biomol NAR Assignments; 2(2):203-205).\nHeteronuclear NMR Spectroscopy. […]\nNMR experiments were carried out at 30° C. on a Varian Unity Inova 600-MHz spectrometer equipped with an H/C/N triple-resonance probe and x/y/z triple-axis pulse field gradient unit. […] Raw data were converted and processed by using NMRPipe (Delaglio et al., 1995, J Biomol NMR; 6(3):277-293) and were analyzed by using NMRview (Johnson, 2004, Methods Mol Biol; 278:313-352).\nAlthough an accurate equilibrium ligand dissociation constant, Kd cannot always be determined from data such as these, a plot of OTX-008-induced intensity changes averaged over all resonances vs. the concentration of OTX-008 does yield a saturable binding curve (inset of FIG. 2). […]"}, "[2]": {"assay": "Phase I clinical trial with terminal cancer patients", "type": "in vivo, human", "conditions": "preliminary, daily subcutaneous injection, 1 mg/Kg", "from_the_text": "In an embodiment, OTX-008 is a therapeutic agent for use against cancer. As a therapeutic agent, calixarene OTX-008 is a significant improvement over both Anginex and 6DBF7, as well as over any carbohydrate-based compound, for multiple reasons. OTX-008 (937 Da) approaches the generally accepted definition of a “small molecule” (i.e. <500 Da). OTX-008 should have better in vivo exposure, because it is non-peptidic and non-carbohydrate, and therefore is non-hydrolyzable. Moreover, because of its aryl-crown structure, OTX-008 should be chemically stable and less likely to be metabolized in vivo than any peptide or carbohydrate-based compound. […] In an embodiment, OTX-008 is a promising anti-tumor agent that targets galectin-1 as a first-in-class therapeutic agent."}, "[3]": {"conditions": "read-out: inhibition of gal-1 binding to CD4+ (or CD8+) cells"}, "[4]": {"conditions": "read-out: inhibition of gal-1 binding to CD31+ cells"}}, "note": "Like-named read-outs stand apart in the source and are kept apart here.", "data": [{"smiles": "CN(C)CCNC(=O)COc1c2cccc1Cc1cccc(c1OCC(=O)NCCN(C)C)Cc1cccc(c1OCC(=O)NCCN(C)C)Cc1cccc(c1OCC(=O)NCCN(C)C)C2", "note": "[OTX-008]", "values": [{"measurement": "inhibition at 20 µM", "setting": "Jurkat E6.1 cells", "result": "~80", "unit": "%"}, {"measurement": "inhibition of cell viability on several cell types in culture", "setting": "human cancer cell lines", "result": "dose-dependent"}, {"measurement": "inhibition at 20 µM", "setting": "[1]; [3]", "result": "~80", "unit": "%"}, {"measurement": "inhibition at 20 µM", "setting": "[1]; [4]", "result": "~50", "unit": "%"}, {"measurement": "inhibition at 100 µM", "setting": "[1]; [3]", "result": 100, "unit": "%"}, {"measurement": "inhibition at 100 µM", "setting": "[1]; [4]", "result": "~70", "unit": "%"}, {"measurement": "Kd", "setting": "human galectin-1 (gal-1)", "result": "~30", "unit": "µM"}, {"measurement": "half-life", "setting": "[2]; human, in vivo, sc", "result": "~48", "unit": "h"}, {"measurement": "disease state", "setting": "[2]", "result": "apparent stabilization of disease state"}, {"measurement": "toxicity", "setting": "[2]", "result": "absence of toxicity"}]}]}
